Laboratory results published in patent US11542240B2, “STK19 inhibitors for treatment of cancer” (TRUSTEES OF BOSTON UNIVERSITY, priority 2018, dated 2023).
Like-named read-outs stand apart in the source and are kept apart here.

How the values were obtained:
Experiment in all cases: biochemical
Assay type in all cases: binding
[1] = target: panel of 468 diverse kinases (Homo sapiens, UniProt Q9BVS4); settings: RIOK2; 1000 nM; read-out: Percent Control
[2] = target: panel of 468 diverse kinases (Homo sapiens, UniProt P36888, D835V); settings: FLT3(D835V); 1000 nM; read-out: Percent Control
[3] = target: panel of 468 diverse kinases (Homo sapiens, UniProt P16591); settings: FER; 1000 nM; read-out: Percent Control
[4] = target: panel of 468 diverse kinases (Homo sapiens, UniProt Q9BYP7); settings: WNK3; 1000 nM; read-out: Percent Control
[5] = target: panel of 468 diverse kinases (Homo sapiens, UniProt P42336, H1047Y); settings: PIK3CA(H1047Y); 1000 nM; read-out: Percent Control
[6] = target: panel of 468 diverse kinases (Homo sapiens, UniProt O00444); settings: PLK4; 1000 nM; read-out: Percent Control
[7] = target: panel of 468 diverse kinases (Homo sapiens, UniProt Q15349); settings: 1000 nM, read-out: Percent Control
[8] = target: panel of 468 diverse kinases (Homo sapiens, UniProt Q14012); settings: CAMK1; 1000 nM; read-out: Percent Control
[9] = target: panel of 468 diverse kinases (Homo sapiens, UniProt P42679); settings: CTK; 1000 nM; read-out: Percent Control
[10] = target: panel of 468 diverse kinases (Homo sapiens, UniProt P48729); settings: CSNKIV1; 1000 nM; read-out: Percent Control
[11] = target: panel of 468 diverse kinases (Homo sapiens, UniProt P22607, G697C); settings: FGFR3(G697C); 1000 nM; read-out: Percent Control
[12] = target: panel of 468 diverse kinases (Homo sapiens, UniProt Q13546); settings: RIPK1; 1000 nM; read-out: Percent Control
[13] = target: panel of 468 diverse kinases (Homo sapiens, UniProt O94804); settings: LOK; 1000 nM; read-out: Percent Control
[14] = target: panel of 468 diverse kinases (Homo sapiens, UniProt Q7KZI7); settings: MARK2; 1000 nM; read-out: Percent Control
[15] = target: panel of 468 diverse kinases (Homo sapiens, UniProt Q16659); settings: ERK3; 1000 nM; read-out: Percent Control
[16] = target: panel of 468 diverse kinases (Homo sapiens, UniProt Q9HBY8); settings: SGK2; 1000 nM; read-out: Percent Control
[17] = target: panel of 468 diverse kinases (Homo sapiens, UniProt Q12851); settings: MAP4K2; 1000 nM; read-out: Percent Control
[18] = target: panel of 468 diverse kinases (Homo sapiens, UniProt Q8N4C8); settings: MINK; 1000 nM; read-out: Percent Control
[19] = target: panel of 468 diverse kinases (Homo sapiens, UniProt P51817); settings: PRKX; 1000 nM; read-out: Percent Control
[20] = target: panel of 468 diverse kinases (Homo sapiens, UniProt P11362); settings: FGFR1; 1000 nM; read-out: Percent Control
[21] = target: panel of 468 diverse kinases (Homo sapiens, UniProt Q86UE8); settings: TLK2; 1000 nM; read-out: Percent Control
[22] = target: panel of 468 diverse kinases (Homo sapiens, UniProt Q00526); settings: CDK3; 1000 nM; read-out: Percent Control
[23] = target: panel of 468 diverse kinases (Homo sapiens, UniProt P54753); settings: EPHB3; 1000 nM; read-out: Percent Control
[24] = target: panel of 468 diverse kinases (Homo sapiens, UniProt Q99683); settings: ASK1; 1000 nM; read-out: Percent Control
[25] = target: panel of 468 diverse kinases (Homo sapiens, UniProt P51956); settings: NEK3; 1000 nM; read-out: Percent Control
[26] = target: panel of 468 diverse kinases (Homo sapiens, UniProt P0C264); settings: SgK110; 1000 nM; read-out: Percent Control
[27] = target: panel of 468 diverse kinases (Homo sapiens, UniProt P80192); settings: MLK1; 1000 nM; read-out: Percent Control
[28] = target: panel of 468 diverse kinases (Homo sapiens, UniProt Q13555); settings: CAMK2G; 1000 nM; read-out: Percent Control
[29] = target: panel of 468 diverse kinases (Homo sapiens, UniProt P57058); settings: HUNK; 1000 nM; read-out: Percent Control
[30] = target: panel of 468 diverse kinases (Homo sapiens, UniProt Q9NRH2); settings: SNRK; 1000 nM; read-out: Percent Control
[31] = target: panel of 468 diverse kinases (Homo sapiens, UniProt O14578); settings: CIT; 1000 nM; read-out: Percent Control

Chain of panel of 468 diverse kinases (Homo sapiens, UniProt P11362) (P11362 22-822 limits assumed): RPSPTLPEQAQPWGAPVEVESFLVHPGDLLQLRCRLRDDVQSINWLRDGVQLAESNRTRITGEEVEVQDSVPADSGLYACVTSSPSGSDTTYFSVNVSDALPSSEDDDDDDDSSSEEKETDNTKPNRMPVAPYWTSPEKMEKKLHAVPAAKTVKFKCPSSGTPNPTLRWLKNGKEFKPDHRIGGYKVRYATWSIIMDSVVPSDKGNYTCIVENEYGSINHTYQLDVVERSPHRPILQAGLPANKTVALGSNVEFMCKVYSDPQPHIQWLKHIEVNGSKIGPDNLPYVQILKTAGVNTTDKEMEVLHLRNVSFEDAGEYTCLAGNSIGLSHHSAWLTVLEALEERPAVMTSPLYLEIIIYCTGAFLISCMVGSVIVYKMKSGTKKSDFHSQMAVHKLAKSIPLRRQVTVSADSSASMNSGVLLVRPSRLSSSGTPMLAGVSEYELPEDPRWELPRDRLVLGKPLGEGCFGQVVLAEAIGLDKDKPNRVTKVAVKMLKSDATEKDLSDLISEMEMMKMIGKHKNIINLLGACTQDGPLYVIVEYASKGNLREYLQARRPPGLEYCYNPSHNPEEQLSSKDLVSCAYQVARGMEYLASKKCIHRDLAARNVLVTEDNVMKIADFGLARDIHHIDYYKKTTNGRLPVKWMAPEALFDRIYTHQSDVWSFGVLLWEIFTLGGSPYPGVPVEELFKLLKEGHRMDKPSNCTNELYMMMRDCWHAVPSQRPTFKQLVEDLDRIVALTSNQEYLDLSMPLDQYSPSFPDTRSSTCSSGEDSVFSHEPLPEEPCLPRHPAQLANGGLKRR
Chain of panel of 468 diverse kinases (Homo sapiens, UniProt P54753) (P54753 34-998 limits assumed): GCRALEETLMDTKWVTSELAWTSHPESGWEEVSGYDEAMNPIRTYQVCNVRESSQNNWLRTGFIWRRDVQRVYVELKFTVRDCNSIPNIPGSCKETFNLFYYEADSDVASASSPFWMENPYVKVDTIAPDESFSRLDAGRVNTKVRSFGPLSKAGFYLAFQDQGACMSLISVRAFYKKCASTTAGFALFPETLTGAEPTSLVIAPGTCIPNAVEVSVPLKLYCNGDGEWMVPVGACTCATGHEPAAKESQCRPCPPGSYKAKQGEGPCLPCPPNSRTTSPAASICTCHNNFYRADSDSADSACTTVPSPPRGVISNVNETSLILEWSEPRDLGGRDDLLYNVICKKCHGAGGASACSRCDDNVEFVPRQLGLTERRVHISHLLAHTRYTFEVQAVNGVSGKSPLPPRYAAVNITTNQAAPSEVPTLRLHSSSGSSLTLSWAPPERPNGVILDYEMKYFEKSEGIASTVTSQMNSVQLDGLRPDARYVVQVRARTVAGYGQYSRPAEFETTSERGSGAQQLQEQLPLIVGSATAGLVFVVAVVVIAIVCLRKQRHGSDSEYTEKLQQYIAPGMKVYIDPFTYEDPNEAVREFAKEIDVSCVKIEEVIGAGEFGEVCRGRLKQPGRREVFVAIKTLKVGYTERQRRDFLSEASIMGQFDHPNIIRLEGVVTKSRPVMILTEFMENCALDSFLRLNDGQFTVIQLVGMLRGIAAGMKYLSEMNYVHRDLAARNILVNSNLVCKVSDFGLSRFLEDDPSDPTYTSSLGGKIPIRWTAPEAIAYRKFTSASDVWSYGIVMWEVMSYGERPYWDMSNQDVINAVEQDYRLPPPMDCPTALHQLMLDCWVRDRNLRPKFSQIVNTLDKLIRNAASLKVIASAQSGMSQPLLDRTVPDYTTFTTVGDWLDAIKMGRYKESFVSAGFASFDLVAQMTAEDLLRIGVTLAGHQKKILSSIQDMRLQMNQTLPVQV
Chain of panel of 468 diverse kinases (Homo sapiens, UniProt P22607, G697C) (P22607 23-806 G697C limits assumed): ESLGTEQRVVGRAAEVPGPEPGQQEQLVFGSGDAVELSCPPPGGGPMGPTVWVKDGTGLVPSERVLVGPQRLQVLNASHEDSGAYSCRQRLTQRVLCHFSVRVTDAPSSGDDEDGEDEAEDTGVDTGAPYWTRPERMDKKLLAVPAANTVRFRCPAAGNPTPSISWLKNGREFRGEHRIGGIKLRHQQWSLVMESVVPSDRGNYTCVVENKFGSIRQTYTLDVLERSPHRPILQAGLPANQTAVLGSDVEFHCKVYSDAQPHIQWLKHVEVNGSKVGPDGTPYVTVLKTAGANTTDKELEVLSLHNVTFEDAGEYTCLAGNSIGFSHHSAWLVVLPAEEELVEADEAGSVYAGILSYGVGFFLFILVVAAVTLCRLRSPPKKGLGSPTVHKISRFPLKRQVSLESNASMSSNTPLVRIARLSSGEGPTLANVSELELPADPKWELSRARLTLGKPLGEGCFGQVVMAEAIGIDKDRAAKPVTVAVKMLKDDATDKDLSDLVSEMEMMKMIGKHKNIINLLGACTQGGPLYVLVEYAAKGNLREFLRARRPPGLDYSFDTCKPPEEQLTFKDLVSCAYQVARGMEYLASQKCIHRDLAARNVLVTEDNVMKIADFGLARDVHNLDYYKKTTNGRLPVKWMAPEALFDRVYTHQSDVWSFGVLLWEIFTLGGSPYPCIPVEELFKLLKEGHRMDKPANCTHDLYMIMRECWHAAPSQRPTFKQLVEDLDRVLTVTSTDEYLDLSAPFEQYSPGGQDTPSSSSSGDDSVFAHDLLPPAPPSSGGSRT
Chain of panel of 468 diverse kinases (Homo sapiens, UniProt P48729) (P48729 2-337 limits assumed): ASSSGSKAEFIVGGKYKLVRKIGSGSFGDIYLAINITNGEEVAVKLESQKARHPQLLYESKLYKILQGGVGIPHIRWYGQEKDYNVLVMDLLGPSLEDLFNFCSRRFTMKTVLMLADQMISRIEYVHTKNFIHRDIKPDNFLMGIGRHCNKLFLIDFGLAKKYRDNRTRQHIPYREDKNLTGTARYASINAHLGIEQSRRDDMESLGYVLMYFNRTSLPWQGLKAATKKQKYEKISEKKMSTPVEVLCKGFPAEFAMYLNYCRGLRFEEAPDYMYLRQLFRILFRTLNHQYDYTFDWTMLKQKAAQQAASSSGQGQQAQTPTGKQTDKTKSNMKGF

Compound `COc1cc2nc(NC3CC3)nc(NC3CCN(C(C)C)CC3)c2cc1OC` [Formula IV] has a remaining activity at 1 µM [1] of 80%, a remaining activity at 1 µM [2] of 44% and a remaining activity at 1 µM [3] of 90%. For the same compound, the remaining activity at 1 µM [4] was 69%, the remaining activity at 1 µM [5] was 91% and the remaining activity at 1 µM [6] was 58%. For the same compound, the remaining activity at 1 µM ([7]; RSK3(Kin.Dom.1-N-terminal)) was 93%, the remaining activity at 1 µM ([7]; RSK3(Kin.Dom.2-C-terminal)) was 81% and the remaining activity at 1 µM [8] was 91%. It also gave a remaining activity at 1 µM [9] of 32%, a remaining activity at 1 µM [10] of 74% and a remaining activity at 1 µM [11] of 100%. The remaining activity at 1 µM [12] was 87%, the remaining activity at 1 µM [13] was 90% and the remaining activity at 1 µM [14] was 100%. The remaining activity at 1 µM [15] was 90%, the remaining activity at 1 µM [16] was 64% and the remaining activity at 1 µM [17] was 87%. For the same compound, the remaining activity at 1 µM [18] was 69%, the remaining activity at 1 µM [19] was 100% and the remaining activity at 1 µM [20] was 100%. It also gave a remaining activity at 1 µM [21] of 100%, a remaining activity at 1 µM [22] of 100% and a remaining activity at 1 µM [23] of 100%. For the same compound, the remaining activity at 1 µM [24] was 75%, the remaining activity at 1 µM [25] was 50% and the remaining activity at 1 µM [26] was 97%. For the same compound, the remaining activity at 1 µM [27] was 98%, the remaining activity at 1 µM [28] was 100% and the remaining activity at 1 µM [29] was 74%. The remaining activity at 1 µM [30] was 78% and the remaining activity at 1 µM [31] was 100%.
